Literature values as cited in PMC4195943, “A novel small-molecule MRCK inhibitor blocks cancer cell invasion” (Cell Communication and Signaling : CCS, 2014).
pIC50: −log10 of the molar value.

Tests used:
Protein Kinase C = target: Protein Kinase C; design: method as in PMID 2244923; conditions: read-out: in vitro IC50, Protein Kinase C; cited from earlier work
MRCKα = MRCKα (Homo sapiens, UniProt Q5VT25); design: method as in PMID 21457715; conditions: read-out: in vitro IC50, MRCKα; cited from earlier work
MRCKα, sequence (Q5VT25 whole entry): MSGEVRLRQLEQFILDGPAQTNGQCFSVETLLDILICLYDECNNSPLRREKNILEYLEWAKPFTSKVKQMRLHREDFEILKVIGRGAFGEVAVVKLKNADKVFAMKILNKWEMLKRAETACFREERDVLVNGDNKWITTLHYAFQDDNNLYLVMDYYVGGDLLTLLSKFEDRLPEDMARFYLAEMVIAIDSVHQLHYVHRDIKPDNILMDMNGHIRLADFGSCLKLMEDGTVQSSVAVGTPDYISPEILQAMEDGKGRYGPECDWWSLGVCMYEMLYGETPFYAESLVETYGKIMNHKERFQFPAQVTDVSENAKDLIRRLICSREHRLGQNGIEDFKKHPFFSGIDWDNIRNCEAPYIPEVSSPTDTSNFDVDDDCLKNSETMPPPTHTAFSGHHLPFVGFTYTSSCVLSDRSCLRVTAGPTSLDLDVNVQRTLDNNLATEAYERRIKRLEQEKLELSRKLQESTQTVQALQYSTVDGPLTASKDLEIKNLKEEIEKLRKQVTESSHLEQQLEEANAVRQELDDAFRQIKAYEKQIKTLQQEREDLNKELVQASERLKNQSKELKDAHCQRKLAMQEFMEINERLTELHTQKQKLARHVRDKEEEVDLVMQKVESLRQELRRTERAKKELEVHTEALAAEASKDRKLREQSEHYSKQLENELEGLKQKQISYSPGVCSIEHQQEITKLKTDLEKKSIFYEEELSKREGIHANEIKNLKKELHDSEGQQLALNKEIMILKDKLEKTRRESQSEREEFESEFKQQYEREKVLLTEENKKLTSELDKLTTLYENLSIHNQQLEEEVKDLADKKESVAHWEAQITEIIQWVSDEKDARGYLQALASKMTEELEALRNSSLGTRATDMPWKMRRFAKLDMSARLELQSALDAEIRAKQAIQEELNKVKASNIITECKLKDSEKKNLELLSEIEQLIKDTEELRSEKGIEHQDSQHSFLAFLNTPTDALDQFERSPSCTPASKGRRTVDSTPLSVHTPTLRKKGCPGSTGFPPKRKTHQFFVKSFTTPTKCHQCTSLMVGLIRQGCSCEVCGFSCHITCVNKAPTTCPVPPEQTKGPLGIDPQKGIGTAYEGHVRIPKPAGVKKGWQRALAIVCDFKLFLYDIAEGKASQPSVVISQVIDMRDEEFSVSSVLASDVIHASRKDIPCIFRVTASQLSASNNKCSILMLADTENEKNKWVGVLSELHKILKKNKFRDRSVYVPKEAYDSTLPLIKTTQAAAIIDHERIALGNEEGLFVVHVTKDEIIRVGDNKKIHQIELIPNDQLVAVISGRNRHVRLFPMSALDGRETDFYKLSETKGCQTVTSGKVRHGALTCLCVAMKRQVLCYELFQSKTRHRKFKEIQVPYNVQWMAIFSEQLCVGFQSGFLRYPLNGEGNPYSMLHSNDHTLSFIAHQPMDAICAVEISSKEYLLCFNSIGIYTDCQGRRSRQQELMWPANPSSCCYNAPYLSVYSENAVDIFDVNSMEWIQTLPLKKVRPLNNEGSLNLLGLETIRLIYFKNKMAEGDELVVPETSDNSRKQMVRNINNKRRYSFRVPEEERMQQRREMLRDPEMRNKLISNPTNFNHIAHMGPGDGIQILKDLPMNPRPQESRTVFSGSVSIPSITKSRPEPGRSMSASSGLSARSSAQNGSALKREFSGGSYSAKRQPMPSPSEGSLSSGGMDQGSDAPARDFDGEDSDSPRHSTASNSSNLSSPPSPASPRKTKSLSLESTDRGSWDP

In the case of `COc1ccc2c(c[n+](C)c3c4cc5c(cc4ccc23)OCO5)c1OC` [Chelerythrine], the pIC50 (Protein Kinase C) is listed as 6.18 and the pIC50 (MRCKα) is listed as 5.75.
